This is an account of results in PMC9945734 (BMC Medicine, 2023).

Read-outs that look alike come from different tables or passages of the source.

Experiment [1] deals with DU 145 (KLF5 null) cells expressing KLF5. In words: CCK-8 cell viability assay. The class given is cell-based. The settings on record: Homo sapiens, CCK-8, 48 h. How it is done: (§1) According to the manufacturer's instructions, cell viability was measured using a kit from Beyotime Biotechnology. Briefly, cells were seeded onto 96-well plates at 5 × 10^3 cells per well, incubated overnight, and then treated for 48 h with drugs at 0, 0.02, 0.05, 0.14, 0.41, 1.23, 3.7, 11.1, 33.3, and 100 μM. Four drugs were analyzed: furagin, nifuratel, nitazoxanide, and retapamulin. At the end of drug treatment, the medium was removed, the CCK-8 solution was added into each well at 100 μL/well and incubated for 1.5 h at 37°C, and the optical density (OD) was measured at 450 nm using a microplate reader (BioTek).
On the technique in general: Tetrazolium assays rely on reduction of a dye to a coloured formazan, in cell work by metabolically active cells.

In experiment [2] the test system is DU 145 (KLF5 null) cells expressing KLF5^K369R. In words: CCK-8 cell viability assay. In kind it is cell-based. The settings on record: Homo sapiens, CCK-8, 48 h. How it is done: as §1
Experiment [3] relates to PC-3 (KLF5 null) cells expressing KLF5^K369R. In words: CCK-8 cell viability assay. In kind it is cell-based. The conditions noted are these: Homo sapiens, CCK-8, 48 h. How it is done:
as §1

Experiment [4] relates to PC-3 (KLF5 null) cells expressing KLF5. In words: CCK-8 cell viability assay. In kind it is cell-based. The conditions noted are these: Homo sapiens, CCK-8, 48 h. How it is done:
as §1

For experiment [5], the system named is PC-3-KQ cells. In words: 3D spheroid invasion assay and screening of FDA-approved drugs. The conditions noted are these: for activity at 0.01 µM / activity at 0.1 µM / activity at 1 µM / activity at 10 µM / inhibition at 0.1 µM: Homo sapiens; for activity at 0.01 µM / activity at 0.1 µM / activity at 1 µM / activity at 10 µM: 72 h, read-out: Invasion rates (%) of each drug’s multiple concentrations; for activity at 0.01 µM / activity at 0.1 µM / activity at 1 µM / activity at 10 µM / Invasion rates (%) of each drug’s multiple concentrations (μM): compared to vehicle control; for inhibition at 0.1 µM: read-out: inhibition of cell invasion. In kind it is cell-based, human. The essentials: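 Cells were clustered into spheroids by centrifugation and grown 3 days, then embedded in matrigel-medium containing drug on day 4 and cultured another 3 days. Drugs were screened at 10 μM first, then at 0–10 μM, in duplicate wells. Invasion area is total area minus core sphere area from phase-contrast images.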

The subject of experiment [6] is PC-3 (KLF5 null) cells expressing KLF5^K369Q. In words: CCK-8 cell viability assay. The class given is cell-based, human. The settings on record: Homo sapiens; PC-3 (KLF5 null), KLF5^K369Q; CCK-8, 48 h. As to the method:
as §1
(§2) We also tested a wider range of NTZ concentrations in PC-3-KQ and DU 145-KQ cells using the CCK-8 assay by seeding 2 × 10^3 cells and 2.5 × 10^3 cells onto each well of 96-well plates. PC-3-KQ cells were treated with NTZ at 0, 0.01, 0.1, […], 2.5, and 5 μM, while DU 145-KQ cells were treated with NTZ at 0, 0.01, 0.1, 5, 10, and 20 μM for 0, 24, 48, and 72 h. The number of viable cells was determined using the CCK-8 solution as described above.

The subject of experiment [7] is DU 145 (KLF5 null) cells expressing KLF5^K369Q. Description: CCK-8 cell viability assay. In kind it is cell-based, human. The settings on record: Homo sapiens; DU 145 (KLF5 null), KLF5^K369Q; CCK-8, 48 h. As to the method:
as §1, §2

[8] abbreviates: 0.01 μM (first column so headed), secondary screening of 87 hit compounds (Table S1).
[9] abbreviates: 0.01 μM (first column so headed), third screening of 25 hit compounds (Table S2).
Setting [10] is: 0.01 μM (second column so headed), secondary screening of 87 hit compounds (Table S1).
The mark [11] stands for this setting: 0.01 μM (second column so headed), third screening of 25 hit compounds (Table S2).
The mark [12] stands for this setting: 0.1 μM, secondary screening of 87 hit compounds (Table S1).
The mark [13] stands for this setting: 0.1 μM, third screening of 25 hit compounds (Table S2).
[14] abbreviates: 1 μM, secondary screening of 87 hit compounds (Table S1).
Where [15] appears, read: 1 μM, third screening of 25 hit compounds (Table S2).
[16] abbreviates: 10 μM, secondary screening of 87 hit compounds (Table S1).
Where [17] appears, read: 10 μM, third screening of 25 hit compounds (Table S2).

Broadly, the IC50 is the concentration needed to halve the response being measured. High values mean weaker potency in that assay, low ones greater potency in that assay. One may read the inhibition as the percentage by which the read-out fell short of the control. Take `O=C1CN(/N=C/C=C/c2ccc([N+](=O)[O-])o2)C(=O)N1` [Furagin]: the half-inhibitory concentration (IC50) amounted to 31.4 ± 4 µM in experiment [1]; 359 ± 127 µM in experiment [2]; 101 ± 27.9 µM in experiment [3]; 17.3 ± 2.2 µM in experiment [4]; 28.6 ± 1.9 µM in experiment [6]; 63.3 ± 2.4 µM in experiment [7]. Also, the activity at 0.01 µM in experiment [5] (setting [8]) amounted to 24.8%; in experiment [5] (setting [9]) it was 77.1%; in experiment [5] (setting [10]), 42.2%; in experiment [5] (setting [11]), 97.5%. In addition, the activity at 0.1 µM in experiment [5] (setting [12]) is 5.95%; in experiment [5] (setting [13]), 2.26%. For the same compound, the activity at 1 µM in experiment [5] (setting [14]) was 3.36%; in experiment [5] (setting [15]) it was 2.3%. Moreover, the activity at 10 µM in experiment [5] (setting [16]) was determined as 2.18%; in experiment [5] (setting [17]), 1.29%. Also, the inhibition at 0.1 µM in experiment [5] is > 50%.
For `CSCC1CN(/N=C/c2ccc([N+](=O)[O-])o2)C(=O)O1` (stereo not drawn) [Nifuratel], the 50% inhibitory concentration (IC50) in experiment [1] worked out at 7.1 ± 0.7 µM; in experiment [2] it was 14 ± 0.2 µM; in experiment [3], 18.7 ± 1 µM; in experiment [4] it was 32 ± 1.6 µM; in experiment [6], 18.6 ± 0.7 µM; in experiment [7], 16.2 ± 0.8 µM. The activity at 0.01 µM in experiment [5] (setting [8]) was determined as 70%; in experiment [5] (setting [9]) it was 59.9%; in experiment [5] (setting [10]), 82.6%; in experiment [5] (setting [11]), 93.9%. For the same compound, the activity at 0.1 µM was 60.6% in experiment [5] (setting [12]) and 7.32% in experiment [5] (setting [13]). In addition, the activity at 1 µM in experiment [5] (setting [14]) turned out to be 8.43%; in experiment [5] (setting [15]), 3.12%. The activity at 10 µM in experiment [5] (setting [16]) turned out to be 0.26%; in experiment [5] (setting [17]), 1.46%. Also, the inhibition at 0.1 µM in experiment [5] was > 50%.
In the case of `C=C[C@]1(C)C[C@@H](OC(=O)CS[C@@H]2C[C@H]3CC[C@@H](C2)N3C)[C@]2(C)[C@H](C)CC[C@]3(CCC(=O)[C@H]32)[C@@H](C)[C@@H]1O` [Retapamulin], the half-maximal inhibitory concentration (IC50) in experiment [1] is 13.7 ± 2.7 µM; in experiment [2] it was 11.1 ± 0.8 µM; in experiment [3], 12.2 ± 1.1 µM; in experiment [4], 1.6 ± 0.3 µM; in experiment [6], 12.6 ± 2.3 µM; in experiment [7] it was 14.7 ± 1.5 µM. Moreover, the activity at 0.01 µM in experiment [5] (setting [8]) came to 7.43%; in experiment [5] (setting [9]), 74.4%; in experiment [5] (setting [11]) it was 94.3%. The values for the activity at 0.1 µM in experiment [5] (setting [12]) and in experiment [5] (setting [13]) were 7.18% and 4.92%, respectively. The activity at 1 µM was 7.28% in experiment [5] (setting [14]) and 1.65% in experiment [5] (setting [15]). The activity at 10 µM in experiment [5] (setting [16]) was 4.68%; in experiment [5] (setting [17]), 2.42%. In addition, the inhibition at 0.1 µM in experiment [5] is > 50%.
Turning to `CS(=O)(=O)c1ccc([C@@H](O)[C@@H](CO)NC(=O)C(Cl)Cl)cc1` [Thiamphenicol], the activity at 0.01 µM in experiment [5] (setting [8]) was found to be 90.9%; in experiment [5] (setting [10]), 92%. In addition, the activity at 0.1 µM in experiment [5] (setting [12]) came to 91.7%. Besides, in experiment [5] (setting [14]), the activity at 1 µM turned out to be 71.5%. Moreover, the activity at 10 µM in experiment [5] (setting [16]) stood at 6.21%.
For `CN(C)c1cc(NC(=O)CNC(C)(C)C)c(O)c2c1C[C@H]1C[C@H]3[C@H](N(C)C)C(=O)C(C(N)=O)=C(O)[C@@]3(O)C(=O)C1=C2O.CS(=O)(=O)O.CS(=O)(=O)O.CS(=O)(=O)O.CS(=O)(=O)O` [Tigecycline (tetramesylate)], the “Invasion rates (%) of each drug’s multiple concentrations (μM)” value (from here on “Invasion rates (%)”) was found to be 59.60% in experiment [5] (setting [8]); 89.06% in experiment [5] (setting [9]); 77.93% in experiment [5] (setting [10]); 89.80% in experiment [5] (setting [11]); 4.93% in experiment [5] (setting [12]); 88.10% in experiment [5] (setting [13]). Besides, the “Invasion rates (%)” value in experiment [5] (setting [14]) was found to be 4.75%; in experiment [5] (setting [15]), 2.36%; in experiment [5] (setting [16]), 8.35%; in experiment [5] (setting [17]), 1.12%.
Turning to `CCN(CC)CCOc1ccc2c(c1)C(=O)c1cc(OCCN(CC)CC)ccc1-2.Cl.Cl` [Tilorone (dihydrochloride)], the “Invasion rates (%)” value in experiment [5] (setting [8]) worked out at 95.38%; in experiment [5] (setting [10]) it was 99.11%; in experiment [5] (setting [12]) it was 94.30%; in experiment [5] (setting [14]), 93.22%; in experiment [5] (setting [16]), 9.81%.
As for `CCS(=O)(=O)CCn1c([N+](=O)[O-])cnc1C` [Tinidazole], the activity at 0.01 µM turned out to be 78.9% in experiment [5] (setting [8]), 89.2% in experiment [5] (setting [9]), 90.7% in experiment [5] (setting [10]) and 88.2% in experiment [5] (setting [11]). Also, the activity at 0.1 µM in experiment [5] (setting [12]) is 47.1%; in experiment [5] (setting [13]) it was 90.2%. The activity at 1 µM was found to be 6.59% in experiment [5] (setting [14]) and 8.88% in experiment [5] (setting [15]). Also, the activity at 10 µM stood at 2.67% in experiment [5] (setting [16]) and 2.87% in experiment [5] (setting [17]).
Regarding Acetylspiramycin, the “Invasion rates (%)” value came to 96.71% in experiment [5] (setting [8]); 96.46% in experiment [5] (setting [10]); 96.77% in experiment [5] (setting [12]); 87.68% in experiment [5] (setting [14]); 2.37% in experiment [5] (setting [16]).
The like results for Daptomycin were, in that order, 96.29%, 96.99%, 95.71%, 88.47% and 1.26%.
As to Gramicidin, the “Invasion rates (%)” value in experiment [5] (setting [10]) stood at 107.53%; in experiment [5] (setting [12]) it was 94.19%; in experiment [5] (setting [14]), 93.53%; in experiment [5] (setting [16]) it was 0.41%.
With Spiramycin, the “Invasion rates (%)” value in experiment [5] (setting [8]) is 90.26%; in experiment [5] (setting [10]), 91.77%; in experiment [5] (setting [12]), 85.48%; in experiment [5] (setting [14]) it was 80.28%; in experiment [5] (setting [16]), 55.32%.
